ChEMBL document CHEMBL1142427, “Cytotoxic triterpenoid saponins acylated with monoterpenic acid from Pithecellobium lucidum” (J Nat Prod, 2008)

Tests used:
[1] = system: A549; assay: Cytotoxicity against human A549 cells after 96 hrs by MTT assay; type: functional, cell-based; conditions: A549, 96 h
[2] = system: Bel-7402; assay: Cytotoxicity against human Bel7402 cells after 96 hrs by MTT assay; type: functional, cell-based; conditions: Bel-7402, 96 h
[3] = system: BGC-823; assay: Cytotoxicity against human BGC823 cells after 96 hrs by MTT assay; type: functional, cell-based; conditions: BGC-823, 96 h
[4] = system: HCT-8; assay: Cytotoxicity against human HCT8 cells after 96 hrs by MTT assay; type: functional, cell-based; conditions: HCT-8, 96 h
[5] = Toxicity in rabbit erythrocytes assessed as hemolysis at 0.01 uM to 100 uM; type: cell-based, Oryctolagus cuniculus; conditions: erythrocyte
[6] = system: A2780; assay: Cytotoxicity against human A2780 cells after 96 hrs by MTT assay; type: functional, cell-based; conditions: A2780, 96 h

SMILES	IC50 [1] [µM]	IC50 [2] [µM]	IC50 [3] [µM]	IC50 [4] [µM]	Activity [5]	IC50 [6] [µM]
C[C@H]1O[C@@H](OC[C@H]2O[C@@H](O[C@H]3CC[C@]4(C)[C@H]5CC=C6[C@@H]7CC(C)(C)[C@@H](O)C[C@]7(C(=O)O)[C@H](O)C[C@@]6(C)[C@]5(C)CC[C@H]4C3(C)C)[C@H](O)[C@@H](O)[C@@H]2O)[C@H](O[C@@H]2OC[C@@H](O)[C@H](O)[C@H]2O)[C@@H](O)[C@H]1O	> 10	> 10	> 10	> 10	Non-toxic	> 10
C=C[C@@](C)(CC/C=C(\CO)C(=O)O[C@H]1C[C@]2(C(=O)O[C@@H]3O[C@H](CO)[C@@H](O)[C@H](O)[C@H]3O[C@@H]3O[C@@H](C)[C@H](O[C@@H]4O[C@@H](CO)[C@H](O)[C@H]4O)[C@@H](O[C@@H]4O[C@H](CO)[C@@H](O)[C@H](O)[C@H]4O)[C@H]3O)[C@H](O)C[C@]3(C)C(=CC[C@@H]4[C@@]5(C)CC[C@H](O[C@@H]6O[C@H](CO[C@@H]7O[C@H](C)[C@H](O)[C@H](O)[C@H]7O[C@@H]7OC[C@@H](O)[C@H](O)[C@H]7O)[C@@H](O)[C@H](O)[C@H]6O)C(C)(C)[C@@H]5CC[C@]43C)[C@@H]2CC1(C)C)O[C@@H]1O[C@H](C)[C@@H](O)[C@H](O)[C@H]1O	> 10	> 10	> 10	1.5	Non-toxic	1.35
CC[C@@]1(O)C(=O)OCc2c1cc1n(c2=O)Cc2cc3ccccc3nc2-1 [CAMPTOTHECIN]	3.12	12.5	9.67	3.15		0.28
C=C[C@@](C)(CC/C=C(\CO)C(=O)O[C@H]1C[C@]2(C(=O)O[C@@H]3O[C@H](CO)[C@@H](O)[C@H](O)[C@H]3O[C@@H]3O[C@@H](C)[C@H](O[C@@H]4O[C@@H](CO)[C@H](O)[C@H]4O)[C@@H](O[C@@H]4O[C@H](CO)[C@@H](O)[C@H](O)[C@H]4O)[C@H]3O)[C@H](O)C[C@]3(C)C(=CC[C@@H]4[C@@]5(C)CC[C@H](O[C@@H]6O[C@H](CO[C@@H]7O[C@H](C)[C@H](O)[C@H](O)[C@H]7O[C@@H]7OC[C@@H](O)[C@H](O)[C@H]7O)[C@@H](O)[C@H](O)[C@H]6NC(C)=O)C(C)(C)[C@@H]5CC[C@]43C)[C@@H]2CC1(C)C)O[C@@H]1O[C@H](C)[C@@H](O)[C@H](O)[C@H]1O [JULIBROSIDE J29]	1.8	1.65	1.9	1.5	Non-toxic	0.61
C=C[C@@](C)(CC/C=C(\CO)C(=O)O[C@H]1C[C@]2(C(=O)O[C@@H]3O[C@H](CO)[C@@H](O)[C@H](O)[C@H]3O[C@@H]3O[C@@H](C)[C@H](O[C@@H]4O[C@@H](CO)[C@H](O)[C@H]4O)[C@@H](O[C@@H]4O[C@H](C)[C@@H](O)[C@H](O)[C@H]4O)[C@H]3O)[C@H](O)C[C@]3(C)C(=CC[C@@H]4[C@@]5(C)CC[C@H](O[C@@H]6O[C@H](CO[C@@H]7O[C@H](C)[C@H](O)[C@H](O)[C@H]7O[C@@H]7OC[C@@H](O)[C@H](O)[C@H]7O)[C@@H](O)[C@H](O)[C@H]6O)C(C)(C)[C@@H]5CC[C@]43C)[C@@H]2CC1(C)C)O[C@@H]1O[C@H](C)[C@@H](O)[C@H](O)[C@H]1O [PITHELUCOSIDE A]	> 10	> 10	> 10	> 10	Non-toxic	> 10
C=C[C@](C)(O)CC/C=C(\CO)C(=O)O[C@H]1C[C@]2(C(=O)O[C@@H]3O[C@H](CO)[C@@H](O)[C@H](O)[C@H]3O[C@@H]3O[C@@H](C)[C@H](O[C@@H]4O[C@@H](CO)[C@H](O)[C@H]4O)[C@@H](O[C@@H]4O[C@H](CO)[C@@H](O)[C@H](O)[C@H]4O)[C@H]3O)[C@H](O)C[C@]3(C)C(=CC[C@@H]4[C@@]5(C)CC[C@H](O[C@@H]6O[C@H](CO[C@@H]7O[C@H](C)[C@H](O)[C@H](O)[C@H]7O[C@@H]7OC[C@@H](O)[C@H](O)[C@H]7O)[C@@H](O)[C@H](O)[C@H]6O)C(C)(C)[C@@H]5CC[C@]43C)[C@@H]2CC1(C)C [PITHELUCOSIDE B]	> 10	2.54	> 10	> 10	Non-toxic	1.23
C/C(=C\CO)CC/C=C(\CO)C(=O)O[C@H]1C[C@]2(C(=O)O[C@@H]3O[C@H](CO)[C@@H](O)[C@H](O)[C@H]3O[C@@H]3O[C@@H](C)[C@H](O[C@@H]4O[C@@H](CO)[C@H](O)[C@H]4O)[C@@H](O[C@@H]4O[C@H](CO)[C@@H](O)[C@H](O)[C@H]4O)[C@H]3O)[C@H](O)C[C@]3(C)C(=CC[C@@H]4[C@@]5(C)CC[C@H](O[C@@H]6O[C@H](CO[C@@H]7O[C@H](C)[C@H](O)[C@H](O)[C@H]7O[C@@H]7OC[C@@H](O)[C@H](O)[C@H]7O)[C@@H](O)[C@H](O)[C@H]6O)C(C)(C)[C@@H]5CC[C@]43C)[C@@H]2CC1(C)C [PITHELUCOSIDE C]	> 10	7.56	> 10	4.24	Non-toxic	1.66
